The target in this test is Ubiquitin carboxyl-terminal hydrolase 30 (Homo sapiens) (UniProt Q70CQ3). Put plainly: ubiquitin-specific protease 30 DUB inhibitors, concentration-effect, biochemical, validation of primary actives (AID 1645865). Particulars: purified USP30, Ub-rhodamine cleavage, fluorescence, 2 h.

In PubChem BioAssay AID1645865 (Buhrlage Lab, Dana-Farber Cancer Institute and Novartis …, 2021) one finds IC50 data, which are given here for 34 compounds.

Activity calls are given as the source filed them.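 Rule for the calls: active = maximal inhibition of the USP30 enzyme reaching 30% or more across the dose series; inactive = the rest.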

Sequence of Ubiquitin carboxyl-terminal hydrolase 30 (Homo sapiens) (Q70CQ3 whole entry, looked up): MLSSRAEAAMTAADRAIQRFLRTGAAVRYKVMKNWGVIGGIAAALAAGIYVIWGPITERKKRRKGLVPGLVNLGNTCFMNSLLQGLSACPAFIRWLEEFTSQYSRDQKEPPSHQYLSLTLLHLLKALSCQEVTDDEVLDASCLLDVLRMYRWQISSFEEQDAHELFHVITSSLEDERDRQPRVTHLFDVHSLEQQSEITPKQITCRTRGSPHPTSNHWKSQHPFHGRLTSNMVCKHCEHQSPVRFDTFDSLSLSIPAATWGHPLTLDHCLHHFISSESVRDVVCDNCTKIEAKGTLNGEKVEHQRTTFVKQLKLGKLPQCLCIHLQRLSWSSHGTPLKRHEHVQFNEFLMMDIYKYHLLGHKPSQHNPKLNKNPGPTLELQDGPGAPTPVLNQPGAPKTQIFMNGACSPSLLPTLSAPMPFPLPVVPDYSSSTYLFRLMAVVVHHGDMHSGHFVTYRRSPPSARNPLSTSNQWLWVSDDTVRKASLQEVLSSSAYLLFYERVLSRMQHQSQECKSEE

As usually defined, the IC50 is the concentration that gives 50% inhibition. As for `O=c1c2c(ccn1Cc1cc(F)ccc1F)ccn2Cc1cccnc1`, the IC50 is > 50 µM (inactive). On to `Cc1ccc(Nc2nc(Nc3cccc(Cl)c3)nc3nccnc23)cc1`, for which the IC50 was > 50 µM (inactive).

Regarding `O=[N+]([O-])c1ccccc1C(c1c[nH]c2ccccc12)c1c[nH]c2ccccc12`, the IC50 is > 50 µM (inactive). For `O=C(CSc1nc2cc(S(=O)(=O)Nc3ccccc3Cl)ccc2o1)Nc1ccc(N2CCOCC2)cc1`, the IC50 was 49.6 µM. As to `CCS(=O)(=O)c1ccccc1C(=O)Nc1ccc2sc(C)nc2c1`, the IC50 was > 50 µM (inactive).

On to `Cc1cccc(-c2noc(CCn3c(=O)[nH]c4ccccc4c3=O)n2)c1`, for which the IC50 is 29.8 µM. As for `COc1ccc(CN(C(=O)c2cc(-c3ccc(C)cc3)on2)C2CCS(=O)(=O)C2)cc1` (centres undefined), the IC50 is 10.2 µM. Regarding `CCOc1ccc2[nH]c(=O)c(CN(C(=O)c3cccs3)C3CCCC3)cc2c1`, the 50% inhibitory concentration (IC50) is 10.2 µM. Take `O=C(NCc1ccccc1)c1ccc2c(=O)n(-c3ccccc3)c(=O)[nH]c2c1`: the IC50 was 16 µM. Turning to `Cc1cc2nc(/C=C/c3ccccc3)n(Cc3cccc(F)c3)c2cc1C`, the IC50 is > 50 µM (inactive). As for `CCC(=O)Nc1cccnc1-c1ccc(C(=O)Nc2cccc(OC)c2)cc1`, the IC50 was > 50 µM (inactive). The figure for `Cc1cc(C)nc(-n2nc(C)c3c2NC(=O)CSC3c2ccc(F)cc2F)n1` (centres undefined) is 31.3 µM; for `COc1ccc(NC(=O)C2CCCN(S(=O)(=O)N3CCCCCC3)C2)cc1` (centres undefined) it is 42.7 µM; for `Cc1c(-c2ccccc2)oc2c(C(=O)OCC(=O)Nc3ccccc3F)cccc2c1=O` it is > 50 µM (inactive). For the compound `Cc1ccc(C(=O)NCc2ccc(C(=O)Nc3ccc(C)c(C)c3)o2)cc1`, the IC50 was 21.4 µM. Turning to `Cc1cccc(NC(=O)Cn2c(N3CCOCC3)nc3cc(C)n(C)c3c2=O)c1`, the IC50 was 20.9 µM. In the case of `O=C(NCc1cccnc1)c1cnn2c(C(F)(F)F)cc(-c3ccccc3)nc12` it was > 50 µM (inactive); in that of `COc1ccc(OC)c(-c2c(C#N)c(C)nc3c2N2CCC3CC2)c1`, 24.1 µM. Regarding `CCn1ccc2c(cc(C(=O)Nc3cc(F)ccc3F)n2C)c1=O`, the IC50 is > 50 µM (inactive). `O=C(CCCCn1c(=O)[nH]c2ccccc2c1=O)Nc1cccc(Cl)c1`: the half-inhibitory concentration (IC50) was 21.6 µM. Consider `O=C1N[C@@H](Cc2ccccc2)C(=O)N2[C@H]3Nc4ccccc4[C@@]3([C@]34C[C@H]5C(=O)N[C@@H](Cc6ccccc6)C(=O)N5[C@H]3Nc3ccccc34)C[C@@H]12`, for which the IC50 was 40.3 µM. As for `CS(=O)(=O)N1CCCc2cc(C(=O)Nc3ccc4c(c3)OCO4)ccc21`, the IC50 is > 50 µM (inactive). `CC(C)CC1NC(=O)C2CCCN2C1=O` (centres undefined): the IC50 was > 50 µM (inactive). For `COc1ccc(CC(=O)Nc2cccc(-c3nc4ncccc4o3)c2)cc1OC`, the IC50 was > 50 µM (inactive).

Regarding `COc1ccc(CCn2cnc3c4ccccc4n(C)c3c2=O)cc1OC`, the IC50 is > 50 µM (inactive).

As to `CC1=C(c2ccc(F)cc2)S(=O)(=O)NC1=NCC(=O)Nc1cccc(F)c1`, the IC50 was 19.8 µM. As to `O=C(Nc1cc(F)c2nc(N3CCOCC3)ccc2c1)C1CC1`, the IC50 was > 50 µM (inactive).

As to `Cc1ccc(-c2nc(-c3cccs3)cc(C(F)(F)F)c2C#N)cc1`, the IC50 was > 50 µM (inactive). Turning to `COCCNC(=O)Cn1c(=O)n(Cc2ccccc2)c(=O)c2c3c(sc21)CCC3`, the IC50 is 31.7 µM. As to `C=C1Nc2ccccc2C(=O)N1c1cccc(NC(=O)c2ccc(C)c(C)c2)c1`, the IC50 was > 50 µM (inactive).

In the case of `Cn1cc2cccc(NC(=O)c3ccc(F)cc3)c2n1`, the IC50 was > 50 µM (inactive). In the case of `CN(C)S(=O)(=O)c1ccc(C(=O)Nc2c(C#N)oc3ccccc23)cc1`, the IC50 was > 50 µM (inactive).

`CC1CCc2c(sc3nc(CC#N)[nH]c(=O)c23)C1` (centres undefined): the IC50 is > 50 µM (inactive). Take `CC(=O)Nc1ccc(S(=O)(=O)NCc2ccc(C(=O)NCc3ccc(C)cc3)cc2)cc1`: the IC50 was 26.5 µM.
